Laboratory results: ChEMBL document CHEMBL3885861, “Open TG-GATES”

Organism: Rattus norvegicus
Test: Open TG-GATES - Regimen: Single
Type: toxicity, organism-based, Sprague-Dawley
Design: regimen Single, gender Male, age 6 weeks
Conditions: in vivo, po, route gavage; for APTT / Bas / Eos / Fbg / Hb / Ht / Lym / MCH / MCHC / MCV / Mono / Neu / PT / Plat / RBC / Ret / WBC: tissue Blood; for KIDNEY_L / KIDNEY_R / KIDNEY_TOTAL: tissue Kidney; for LIVER: tissue Liver; for A/G / ALP / ALT / AST / BUN / CRE / Ca / Cl / DBIL / GLC / IP / K / LDH / Na / PL / RALB / TBIL / TC / TG / TP / gamma-GTP: tissue Plasma
[1] = 80 mg/kg, 3 h, dose level Middle
[2] = 80 mg/kg, 6 h, dose level Middle
[3] = 80 mg/kg, 9 h, dose level Middle
[4] = 80 mg/kg, 24 h, dose level Middle
[5] = 250 mg/kg, 3 h, dose level High
[6] = 250 mg/kg, 6 h, dose level High
[7] = 250 mg/kg, 9 h, dose level High
[8] = 250 mg/kg, 24 h, dose level High

CCSCC[C@H](N)C(=O)O [ETHIONINE]
TERMINAL_BW [1]: 217.5 g
APTT [1]: 18.6 s
Bas [1]: 0%
Eos [1]: 1%
Fbg [1]: 209 mg/dL
Hb [1]: 13.4 g/dL
Ht [1]: 39.6%
Lym [1]: 77.8%
MCH [1]: 21.3 pg
MCHC [1]: 33.9%
MCV [1]: 62.7 fL
Mono [1]: 2.8%
Neu [1]: 17.6%
PT [1]: 12.4 s
Plat [1]: 119.9 x10_4/uL
RBC [1]: 631.4 x10_4/ul
Ret [1]: 6.8%
WBC [1]: 71.3 x10_2/uL
KIDNEY_L [1]: 1 g
KIDNEY_R [1]: 1 g
KIDNEY_TOTAL [1]: 1.9 g
LIVER [1]: 9.9 g
A/G [1]: 1.6
ALP [1]: 765.4 IU/L
ALT [1]: 33 IU/L
AST [1]: 62.8 IU/L
BUN [1]: 10.4 mg/dL
CRE [1]: 0.4 mg/dL
Ca [1]: 10.3 mg/dL
Cl [1]: 101.4 meq/L
DBIL [1]: 0.052 mg/dL
GLC [1]: 207.4 mg/dL
IP [1]: 10 mg/dL
K [1]: 3.8 meq/L
LDH [1]: 171.6 IU/L
Na [1]: 140.4 meq/L
PL [1]: 120.8 mg/dL
RALB [1]: 3.3 g/dL
TBIL [1]: 0.1 mg/dL
TC [1]: 68.2 mg/dL
TG [1]: 43.8 mg/dL
TP [1]: 5.4 g/dL
gamma-GTP [1]: 1.4 IU/L
TERMINAL_BW [2]: 212.9 g
APTT [2]: 18.2 s
Bas [2]: 0%
Eos [2]: 1%
Fbg [2]: 215 mg/dL
Hb [2]: 13.5 g/dL
Ht [2]: 39.6%
Lym [2]: 79.4%
MCH [2]: 21.4 pg
MCHC [2]: 34.1%
MCV [2]: 62.7 fL
Mono [2]: 2.2%
Neu [2]: 16.6%
PT [2]: 12.9 s
Plat [2]: 116.1 x10_4/uL
RBC [2]: 632 x10_4/ul
Ret [2]: 6.3%
WBC [2]: 88 x10_2/uL
KIDNEY_L [2]: 1 g
KIDNEY_R [2]: 1 g
KIDNEY_TOTAL [2]: 1.9 g
LIVER [2]: 9.2 g
A/G [2]: 1.7
ALP [2]: 877.2 IU/L
ALT [2]: 35.6 IU/L
AST [2]: 65.2 IU/L
BUN [2]: 10.6 mg/dL
CRE [2]: 0.3 mg/dL
Ca [2]: 10.3 mg/dL
Cl [2]: 102.6 meq/L
DBIL [2]: 0.058 mg/dL
GLC [2]: 207.4 mg/dL
IP [2]: 9.4 mg/dL
K [2]: 3.7 meq/L
LDH [2]: 191.2 IU/L
Na [2]: 140.4 meq/L
PL [2]: 116.6 mg/dL
RALB [2]: 3.3 g/dL
TBIL [2]: 0.1 mg/dL
TC [2]: 58.8 mg/dL
TG [2]: 54.2 mg/dL
TP [2]: 5.4 g/dL
gamma-GTP [2]: 1 IU/L
TERMINAL_BW [3]: 215.1 g
APTT [3]: 19.5 s
Bas [3]: 0%
Eos [3]: 1%
Fbg [3]: 205.4 mg/dL
Hb [3]: 13.3 g/dL
Ht [3]: 39%
Lym [3]: 76%
MCH [3]: 21 pg
MCHC [3]: 34.1%
MCV [3]: 61.4 fL
Mono [3]: 2.4%
Neu [3]: 19.4%
PT [3]: 13.1 s
Plat [3]: 117 x10_4/uL
RBC [3]: 634.6 x10_4/ul
Ret [3]: 6.7%
WBC [3]: 77.6 x10_2/uL
KIDNEY_L [3]: 1 g
KIDNEY_R [3]: 1 g
KIDNEY_TOTAL [3]: 1.9 g
LIVER [3]: 9.1 g
A/G [3]: 1.5
ALP [3]: 727 IU/L
ALT [3]: 28.8 IU/L
AST [3]: 54.8 IU/L
BUN [3]: 10.6 mg/dL
CRE [3]: 0.3 mg/dL
Ca [3]: 10.4 mg/dL
Cl [3]: 101.4 meq/L
DBIL [3]: 0.086 mg/dL
GLC [3]: 197.6 mg/dL
IP [3]: 9.7 mg/dL
K [3]: 3.6 meq/L
LDH [3]: 174.2 IU/L
Na [3]: 140.6 meq/L
PL [3]: 133 mg/dL
RALB [3]: 3.4 g/dL
TBIL [3]: 0.1 mg/dL
TC [3]: 70.4 mg/dL
TG [3]: 95.6 mg/dL
TP [3]: 5.6 g/dL
gamma-GTP [3]: 1.4 IU/L
TERMINAL_BW [4]: 227.7 g
APTT [4]: 20.7 s
Bas [4]: 0%
Eos [4]: 1%
Fbg [4]: 224 mg/dL
Hb [4]: 13.7 g/dL
Ht [4]: 40.7%
Lym [4]: 79.8%
MCH [4]: 21.1 pg
MCHC [4]: 33.7%
MCV [4]: 62.7 fL
Mono [4]: 3.6%
Neu [4]: 14%
PT [4]: 13.6 s
Plat [4]: 122.5 x10_4/uL
RBC [4]: 649.8 x10_4/ul
Ret [4]: 6.5%
WBC [4]: 97.9 x10_2/uL
KIDNEY_L [4]: 1 g
KIDNEY_R [4]: 1 g
KIDNEY_TOTAL [4]: 2.1 g
LIVER [4]: 11.3 g
A/G [4]: 1.5
ALP [4]: 1010.2 IU/L
ALT [4]: 37 IU/L
AST [4]: 69 IU/L
BUN [4]: 13.4 mg/dL
CRE [4]: 0.4 mg/dL
Ca [4]: 10.8 mg/dL
Cl [4]: 101.2 meq/L
DBIL [4]: 0.09 mg/dL
GLC [4]: 215.8 mg/dL
IP [4]: 8.8 mg/dL
K [4]: 3.8 meq/L
LDH [4]: 210.6 IU/L
Na [4]: 139.4 meq/L
PL [4]: 129.6 mg/dL
RALB [4]: 3.5 g/dL
TBIL [4]: 0.1 mg/dL
TC [4]: 57.6 mg/dL
TG [4]: 98.2 mg/dL
TP [4]: 5.8 g/dL
gamma-GTP [4]: 1 IU/L
TERMINAL_BW [5]: 215.1 g
APTT [5]: 18.5 s
Bas [5]: 0%
Eos [5]: 1%
Fbg [5]: 205.8 mg/dL
Hb [5]: 13.6 g/dL
Ht [5]: 40%
Lym [5]: 74%
MCH [5]: 21.4 pg
MCHC [5]: 34%
MCV [5]: 62.9 fL
Mono [5]: 2.6%
Neu [5]: 20.6%
PT [5]: 12.5 s
Plat [5]: 117.7 x10_4/uL
RBC [5]: 635.6 x10_4/ul
Ret [5]: 7%
WBC [5]: 90.5 x10_2/uL
KIDNEY_L [5]: 1 g
KIDNEY_R [5]: 1 g
KIDNEY_TOTAL [5]: 2 g
LIVER [5]: 9.7 g
A/G [5]: 1.4
ALP [5]: 1004.6 IU/L
ALT [5]: 37.6 IU/L
AST [5]: 68 IU/L
BUN [5]: 10.6 mg/dL
CRE [5]: 0.4 mg/dL
Ca [5]: 10.3 mg/dL
Cl [5]: 100.8 meq/L
DBIL [5]: 0.054 mg/dL
GLC [5]: 210.4 mg/dL
IP [5]: 9.8 mg/dL
K [5]: 3.8 meq/L
LDH [5]: 183.6 IU/L
Na [5]: 139.6 meq/L
PL [5]: 127.8 mg/dL
RALB [5]: 3.2 g/dL
TBIL [5]: 0.1 mg/dL
TC [5]: 71 mg/dL
TG [5]: 43.4 mg/dL
TP [5]: 5.4 g/dL
gamma-GTP [5]: 1.2 IU/L
TERMINAL_BW [6]: 215.3 g
APTT [6]: 19.4 s
Bas [6]: 0%
Eos [6]: 1%
Fbg [6]: 203.2 mg/dL
Hb [6]: 13 g/dL
Ht [6]: 38.2%
Lym [6]: 76%
MCH [6]: 21.4 pg
MCHC [6]: 34.1%
MCV [6]: 62.6 fL
Mono [6]: 2.8%
Neu [6]: 19.2%
PT [6]: 13.1 s
Plat [6]: 122.2 x10_4/uL
RBC [6]: 610.4 x10_4/ul
Ret [6]: 7.1%
WBC [6]: 98.9 x10_2/uL
KIDNEY_L [6]: 1 g
KIDNEY_R [6]: 1 g
KIDNEY_TOTAL [6]: 1.9 g
LIVER [6]: 9.2 g
A/G [6]: 1.3
ALP [6]: 809.2 IU/L
ALT [6]: 33.8 IU/L
AST [6]: 64.2 IU/L
BUN [6]: 10.4 mg/dL
CRE [6]: 0.4 mg/dL
Ca [6]: 10.2 mg/dL
Cl [6]: 102 meq/L
DBIL [6]: 0.058 mg/dL
GLC [6]: 198.8 mg/dL
IP [6]: 9.6 mg/dL
K [6]: 3.9 meq/L
LDH [6]: 213.8 IU/L
Na [6]: 139 meq/L
PL [6]: 116.6 mg/dL
RALB [6]: 3 g/dL
TBIL [6]: 0.1 mg/dL
TC [6]: 64.6 mg/dL
TG [6]: 44.4 mg/dL
TP [6]: 5.3 g/dL
gamma-GTP [6]: 1.6 IU/L
TERMINAL_BW [7]: 212.6 g
APTT [7]: 20.5 s
Bas [7]: 0%
Eos [7]: 1%
Fbg [7]: 214.2 mg/dL
Hb [7]: 13.3 g/dL
Ht [7]: 39.1%
Lym [7]: 73.6%
MCH [7]: 21.2 pg
MCHC [7]: 34.2%
MCV [7]: 62 fL
Mono [7]: 3.2%
Neu [7]: 21.2%
PT [7]: 13.3 s
Plat [7]: 127.2 x10_4/uL
RBC [7]: 630.2 x10_4/ul
Ret [7]: 7%
WBC [7]: 72.8 x10_2/uL
KIDNEY_L [7]: 1 g
KIDNEY_R [7]: 1 g
KIDNEY_TOTAL [7]: 2 g
LIVER [7]: 9 g
A/G [7]: 1.6
ALP [7]: 774 IU/L
ALT [7]: 29.8 IU/L
AST [7]: 58.4 IU/L
BUN [7]: 8 mg/dL
CRE [7]: 0.3 mg/dL
Ca [7]: 10.4 mg/dL
Cl [7]: 101.4 meq/L
DBIL [7]: 0.072 mg/dL
GLC [7]: 199 mg/dL
IP [7]: 9.3 mg/dL
K [7]: 3.6 meq/L
LDH [7]: 195 IU/L
Na [7]: 139.6 meq/L
PL [7]: 111.2 mg/dL
RALB [7]: 3.4 g/dL
TBIL [7]: 0.1 mg/dL
TC [7]: 57.2 mg/dL
TG [7]: 77.4 mg/dL
TP [7]: 5.6 g/dL
gamma-GTP [7]: 1.2 IU/L
TERMINAL_BW [8]: 221.6 g
APTT [8]: 22 s
Bas [8]: 0%
Eos [8]: 1%
Fbg [8]: 210.4 mg/dL
Hb [8]: 13.9 g/dL
Ht [8]: 41%
Lym [8]: 74.4%
MCH [8]: 21.3 pg
MCHC [8]: 34%
MCV [8]: 62.5 fL
Mono [8]: 5.8%
Neu [8]: 16.8%
PT [8]: 14.4 s
Plat [8]: 116 x10_4/uL
RBC [8]: 655 x10_4/ul
Ret [8]: 6.3%
WBC [8]: 94.1 x10_2/uL
KIDNEY_L [8]: 1 g
KIDNEY_R [8]: 1 g
KIDNEY_TOTAL [8]: 2 g
LIVER [8]: 10.6 g
A/G [8]: 1.6
ALP [8]: 988 IU/L
ALT [8]: 39 IU/L
AST [8]: 74.4 IU/L
BUN [8]: 16 mg/dL
CRE [8]: 0.4 mg/dL
Ca [8]: 10.6 mg/dL
Cl [8]: 101.4 meq/L
DBIL [8]: 0.1 mg/dL
GLC [8]: 198.2 mg/dL
IP [8]: 8.8 mg/dL
K [8]: 3.7 meq/L
LDH [8]: 211 IU/L
Na [8]: 140 meq/L
PL [8]: 122.6 mg/dL
RALB [8]: 3.4 g/dL
TBIL [8]: 0.2 mg/dL
TC [8]: 47.2 mg/dL
TG [8]: 144 mg/dL
TP [8]: 5.6 g/dL
gamma-GTP [8]: 1.2 IU/L
